Structures can show the parent of a compound that is named as a salt.
Tested on: JNK phosphorylation
Experiment: JNK Activation Assay (western blot), Panc-1
Type: cell-based, human
Conditions: at 10 μM, Panc-1 pancreatic cancer cell line; starred symbols = activation
Procedure, shortened: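 KRas G12C Panc-1 cells treated 6 h at 37 °C with compound at 10 μM (0.3% DMSO), or serial dilutions for IC50. In Method 1 cells were serum-starved overnight (0.5% FBS) then stimulated with 1.5 ng/ml EGF for 15 min; Method 2 used 10% FBS without stimulation. Phospho-JNK (Thr183/Tyr185) measured by western blot.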

| SMILES | % inh of JNK in Panc-1 |
| --- | --- |
| COC[C@@H]1CC[C@@H]1CNc1nc(-c2nccn2C)nn2cc(-c3ccn(C(C)C)n3)c(-c3ccccc3)c12 (racemic) [Compound 20, rac 6-(1-Isopropyl-1H-pyrazol-3-yl)-N-(((1S,2R)-2-(methoxymethyl)cyclobutyl)methyl)-2-(1-methyl-1H-imidazol-2-yl)-5-phenylpyrrolo[2,1-f][1,2,4]triazin-4-amine] | H* (H* ≥ 100% activation) |
| COc1cccc(Nc2nc(-c3nccn3C)nn3cc(-c4ccn(C(C)C)n4)c(C)c23)n1 [Compound 7, 6-(1-Isopropyl-1H-pyrazol-3-yl)-N-(6-methoxypyridin-2-yl)-5-methyl-2-(1-methyl-1H-imidazol-2-yl)pyrrolo[2,1-f][1,2,4]triazin-4-amine] | H* (H* ≥ 100% activation) |
| CO[C@H]1CC[C@@H](Nc2nc(-c3nccn3C)nn3cc(-c4ccn(C(C)C)n4)c(-c4ccccc4)c23)C1 (racemic) [Compound 18, rac 6-(1-Isopropyl-1H-pyrazol-3-yl)-N-((1R,3S)-3-methoxycyclopentyl)-2-(1-methyl-1H-imidazol-2-yl)-5-phenylpyrrolo[2,1-f][1,2,4]triazin-4-amine hydrochloride] | F* (F* = 31-74% activation) |
| COC1CCCN(c2nc(-c3nccn3C)nn3cc(-c4ccn(C(C)C)n4)c(C)c23)C1 (racemic) [Compound 4, rac 6-(1-Isopropyl-1H-pyrazol-3-yl)-5-methyl-2-(1-methyl-1H-imidazol-2-yl)-4-(3-(oxo-γ6-methyl)piperidin-1-yl)pyrrolo[2,1-f][1,2,4]triazine] | G* (G* = 75-99% activation) |
| CC(C)n1ccc(-c2cn3nc(-c4nccn4C)nc(O)c3c2-c2ccccc2)n1 [Compound 17, 6-(1-Isopropyl-1H-pyrazol-3-yl)-2-(1-methyl-1H-imidazol-2-yl)-5-phenylpyrrolo[2,1-f][1,2,4]triazin-4-ol] | 0 (0 = 0% inhibition) |

— patent publication US12459951B2, “Compounds that interact with RAS superfamily proteins for treatment of cancers, inflammatory diseases, rasopathies, and fibrotic disease” (SHY Therapeutics, LLC, priority 2022, dated 2025)
